The values that follow come from patent publication US10532985B2, “Heterocycle and carbocycle derivatives having TRKA inhibitory activity” (Shionogi & Co., Ltd., priority 2014, dated 2020).

pIC50: −log10 of the molar value. Where only a bound is given, the exact number is not on record here.

T1 sequence (P04629 33-796): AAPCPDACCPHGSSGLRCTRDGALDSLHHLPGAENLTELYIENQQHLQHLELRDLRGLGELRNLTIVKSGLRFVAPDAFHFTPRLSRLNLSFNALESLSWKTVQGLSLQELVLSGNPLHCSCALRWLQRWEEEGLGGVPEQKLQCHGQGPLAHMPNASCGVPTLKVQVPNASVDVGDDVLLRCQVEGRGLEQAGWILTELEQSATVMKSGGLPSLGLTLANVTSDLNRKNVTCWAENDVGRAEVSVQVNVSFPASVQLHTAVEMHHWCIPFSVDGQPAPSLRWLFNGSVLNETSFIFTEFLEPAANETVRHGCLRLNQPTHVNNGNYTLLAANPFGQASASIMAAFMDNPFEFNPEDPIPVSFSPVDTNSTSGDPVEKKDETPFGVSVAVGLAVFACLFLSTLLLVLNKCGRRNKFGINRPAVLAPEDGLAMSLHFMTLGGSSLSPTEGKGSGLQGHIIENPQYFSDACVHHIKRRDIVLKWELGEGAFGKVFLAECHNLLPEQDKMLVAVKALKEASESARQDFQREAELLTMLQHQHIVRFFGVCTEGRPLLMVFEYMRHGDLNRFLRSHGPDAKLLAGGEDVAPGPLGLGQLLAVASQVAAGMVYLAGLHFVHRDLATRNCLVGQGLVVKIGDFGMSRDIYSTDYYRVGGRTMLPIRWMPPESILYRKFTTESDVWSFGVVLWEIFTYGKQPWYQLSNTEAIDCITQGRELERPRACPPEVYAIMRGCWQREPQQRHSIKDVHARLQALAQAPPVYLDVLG

The first experiment addresses T1, human TrkA (Homo sapiens, UniProt P04629).
T1 construct: purchased Lifetechnologies PV3144
Briefly: Test Example 2-2: Human TrkA Inhibition Assay. The format is biochemical. As to conditions: class symbols, read-out: IC50_nM. The protocol: Seven point five μL per well of human TrkA (PV3144, Lifetechnologies, final concentration: 1 nmol/L) suspended in the assay buffer (100 mmol/L 4-(2-hydroxyethyl)-1-piperazineethanesulfonic acid (HEPES), 10 mmol/L magnesium chloride, 0.003 vol % Brij-35, 0.004 vol % Tween20 and 1 mmol/L dithiothreitol (DTT)) was applied in a 384 well plate and the plate was pre-incubated for 15 min at room temperature with 0.4 μL of each compound (final concentration: […]) dissolved in DMSO. Then, fluorescent substrate (FL-peptide 27, 760424, PerkinElmer, final concentration: 1.5 μmol/L) and ATP (final concentration […]) dissolved in the assay buffer was added in each well. After the incubation of 120 min at 37° C., fifteen μL of termination buffer (100 mmol/L HEPES, 40 mmol/L ethylenediaminetetraacetic acid (EDTA), 10 mmol/L magnesium chloride, 0.003 vol % Brij-35, 0.004 vol % Tween20, 1 mmol/L DTT and 0.16 vol % Coating Reagent 3) was added in each well to stop the enzyme reaction. Fluorescent intensities (FI) of phosphorylated and non-phosphorylated fluorescent substrates were measured by LabChip EZReader II (Caliper LifeSciences, Inc.), and conversion ratio (CR) was calculated by the following formula-1. The CR in the well applied with DMSO alone was used as a negative control and the CR in the well without applying TrkA was used as a positive control. The inhibitory effect of each compound on TrkA phosphorylation was calculated by the following formula-2. CR (%)=(FI of phosphorylated substrate/(FI of phosphorylated substrate+FI of non-phosphorylated substrate))×100 (Formula-1) Phosphorylation inhibition (%)=(1−(CR with compound treatment−CR of positive control)/(CR of negative control−CR of positive control))×100 (Formula-2) Inhibitory effect on TrkA phosphorylation (%)=(1−(CR in compound treated well−CR in positive control)/(CR in negative control−CR in positive control))×100.
The 50/o inhibitory concentration (IC50) was determined by the logistic regression using the inhibition data in 10 points at a range of 2 μmol/L to 0.1 nmol/L or 200 μmol/L to 10 nmol/L).
Take `COCC[C@@H]1C[C@@H](NC(=O)Nc2c(C)c(-c3cnn(C)c3)nn2-c2ccccc2)[C@H](c2ccc(F)cc2)N1C` [Compound I-275]: the pIC50 is > 7.00.

Still in this experiment, the particulars now being: human TrkA 1 nmol/L, 120 min at 37° C., read-out: TrkA inhibition IC50.
With `Cc1c(-c2cnn(C)c2)nn(-c2ccccc2)c1NC(=O)N[C@@H]1CN(CCOC2CC2)C[C@H]1c1ccc(F)c(F)c1` [Compound I-252], the pIC50 was 8.44.
The same measure, in the same setting: then `COCCN1C[C@@H](NC(=O)Nc2c(C)c(-c3cnn(C)c3)nn2-c2ccccc2)[C@H](c2ccc3nonc3c2)C1` (racemic) [Compound I-209], with 8.00.
The same measure, in the same setting: then `Cc1c(-c2cnn(C)c2)nn(-c2ccccc2)c1NC(=O)N[C@@H]1CN(CCOC(F)F)C[C@H]1c1ccccc1` (racemic) [Compound I-248], with 7.74; and `COCC[C@@H]1C[C@@H](NC(=O)Nc2c(C)c(-c3cnc(C)nc3)nn2-c2ccccc2)[C@H](c2ccc(F)c(F)c2)N1` [Compound I-256], with 8.09.
Still for that read-out and setting: under `Cc1c(-c2cnn(C)c2)nn(-c2ccccc2)c1NC(=O)N[C@@H]1CN(Cc2ccc(Br)o2)C[C@H]1c1ccc(F)c(F)c1` [Compound I-190] stands 8.89; under `Cc1c(-c2cnn(C)c2)nn(-c2ccccc2)c1NC(=O)N[C@@H]1CN(Cc2ccc(Cl)o2)C[C@H]1c1ccc(F)c(F)c1` [Compound I-202], 9.15.
Regarding `COCC[C@@H]1C[C@@H](NC(=O)Nc2c(C)c(C3=CCN(C(C)=O)CC3)nn2-c2ccccc2)[C@H](c2ccccc2)C1` [Compound I-270], the pIC50 is 9.17.

The experiment is the same for the next values; noted with them: human TrkA inhibition, class symbols A/B/C, read-out: IC50_nM.
In the case of `COC(=O)C(c1ccco1)N1C[C@@H](NC(=O)Nc2c(C)c(-c3cnn(C)c3)nn2-c2ccccc2)[C@H](c2ccc(F)c(F)c2)C1` (stereo partly shown) [Compound I-177], the pIC50 was 6.00 to 7.00.
Same read-out and setting: under `COCC[C@H]1C[C@@H](NC(=O)Nc2c(C)c(-c3cnn(C)c3)nn2-c2ccccc2)[C@H](c2ccccc2)N1C` [Compound I-246] stands > 7.00; under `Cc1c(-c2cnn(C)c2)nn(-c2ccccc2)c1NC(=O)N[C@@H]1CN(Cc2ccc(C(=O)O)o2)C[C@H]1c1ccc(F)c(F)c1` [Compound I-188], < 6.00.
The same measure, in the same setting: under `COCC(OC)[C@H]1C[C@@H](NC(=O)Nc2c(C)c(-c3cnn(C)c3)nn2-c2ccccc2)[C@H](c2ccc(F)c(F)c2)N1C` (stereo partly shown) [Compound I-231] stands < 6.00; under `Cc1c(-c2cnn(C)c2)nn(-c2ccccc2)c1NC(=O)N[C@@H]1CN(Cc2ccccn2)C[C@H]1c1ccc(F)c(F)c1` [Compound I-240], 6.00 to 7.00; under `COCCC1C[C@@H](NC(=O)Nc2c(C)c(-c3cnn(C)c3)nn2-c2ccccc2)[C@H](c2ccc(F)c(F)c2)N1CC(=O)OC` (stereo partly shown) [Compound I-198], < 6.00.
The same measure, in the same setting: then `COCC[C@@H]1C[C@@H](NC(=O)Nc2c(C)c(-c3ccnc(C)c3)nn2-c2ccccc2)[C@H](c2ccc(F)c(F)c2)N1C` [Compound I-235], with > 7.00; and `CCOc1nn(-c2ccccc2)c(NC(=O)N[C@@H]2C[C@@H](CCOC)[C@H](CO)[C@H]2c2ccccc2)c1C` [Compound I-227], with 6.00 to 7.00.
Consider `COCC[C@@H]1C[C@@H](NC(=O)Nc2c(C)c(-c3ccc(C(=O)OC(C)(C)C)cc3)nn2-c2ccccc2)[C@H](c2ccc(F)c(F)c2)N1C` [Compound I-236], for which the pIC50 was > 7.00.
Still for that read-out and setting: then `CCOc1nn(-c2ccccc2)c(NC(=O)N[C@@H]2CC(CCOC)C[C@H]2c2ccccc2)c1C` (stereo partly shown) [Compound I-212], with > 7.00; and `COCC(COS(C)(=O)=O)[C@@H]1C[C@@H](NC(=O)Nc2c(C)c(-c3cnn(C)c3)nn2-c2ccccc2)[C@H](c2ccccc2)C1` (stereo partly shown) [Compound I-245], with < 6.00.
Same read-out and setting: under `CCO[C@@H]1C[C@@H](NC(=O)Nc2c(C)c(-c3cnn(C)c3)nn2-c2ccccc2)[C@H](c2ccccc2)C1` (racemic) [Compound I-211] stands < 6.00.
Turning to `Cc1c(-c2cnn(C)c2)nn(-c2ccccc2)c1NC(=O)N[C@@H]1CN(Cc2csc(Br)n2)C[C@H]1c1ccc(F)c(F)c1` [Compound I-205], the pIC50 was > 7.00.
On to `CO[C@@H]1C[C@@H](NC(=O)Nc2c(C)c(-c3cnn(C)c3)nn2-c2ccccc2)[C@H](c2ccccc2)C1` (racemic) [Compound I-210], for which the pIC50 was 6.00 to 7.00.
Same read-out and setting: under `Cc1cc(CN2C[C@@H](NC(=O)Nc3c(C)c(-c4cnn(C)c4)nn3-c3ccccc3)[C@H](c3ccc(F)c(F)c3)C2)oc1C` [Compound I-203] stands 6.00 to 7.00; under `COCC[C@@H]1C[C@@H](NC(=O)Nc2c(C)c(-c3cnn(C)c3)nn2-c2ccccc2)[C@H](c2ccccc2)[C@H]1CO` [Compound I-226], 6.00 to 7.00; under `CCOc1nn(-c2ccccc2)c(NC(=O)N[C@@H]2CC(CCOC)C[C@H]2c2ccccc2)c1C` (stereo partly shown) [Compound I-183], > 7.00.
Still for that read-out and setting: under `Cc1c(-c2cnn(C)c2)nn(-c2ccccc2)c1NC(=O)N[C@@H]1CN(C(C)C)C[C@H]1c1ccc(F)c(F)c1` [Compound I-194] stands < 6.00; under `COCC[C@@H]1C[C@@H](NC(=O)Nc2c(C)c(-c3cnn(C)c3)nn2-c2ccccc2)[C@H](c2ccc(F)c(F)c2)N1` [Compound I-208], > 7.00; under `CCNC(=O)c1ccc(-c2nn(-c3ccccc3)c(NC(=O)N[C@@H]3C[C@@H](CCOC)C[C@H]3c3ccccc3)c2C)cc1` [Compound I-264], > 7.00.
Take `CCc1ccc(CN2C[C@@H](NC(=O)Nc3c(C)c(-c4cnn(C)c4)nn3-c3ccccc3)[C@H](c3ccc(F)c(F)c3)C2)o1` [Compound I-192]: the pIC50 is 6.00 to 7.00.
Still for that read-out and setting: then `CCOCCN1C[C@@H](NC(=O)Nc2c(C)c(-c3cnn(C)c3)nn2-c2ccccc2)[C@H](c2ccc(F)c(F)c2)C1` [Compound I-249], with > 7.00.
The same measure, in the same setting: under `COCC(C(=O)OC)[C@@H]1C[C@@H](NC(=O)Nc2c(C)c(-c3cnn(C)c3)nn2-c2ccccc2)[C@H](c2ccccc2)C1` (mixture of isomers) [Compound I-243] stands < 6.00; under `COCC[C@@H]1C[C@@H](NC(=O)Nc2c(C)c(C3=CCNCC3)nn2-c2ccccc2)[C@H](c2ccc(F)c(F)c2)N1` [Compound I-247], > 7.00.
Same read-out and setting: under `Cc1ccc(CN2C[C@@H](NC(=O)Nc3c(C)c(-c4cnn(C)c4)nn3-c3ccccc3)[C@H](c3ccc(F)c(F)c3)C2)o1` [Compound I-193] stands > 7.00; under `COCCC1C[C@@H](NC(=O)Nc2cc(-c3ccc(C(=O)OC)cc3)nn2C)[C@H](c2ccccc2)C1` (relative stereo) [Compound I-181], < 6.00.
On to `CCN1C(CCOC)C[C@@H](NC(=O)Nc2c(C)c(-c3cnn(C)c3)nn2-c2ccccc2)[C@@H]1c1ccc(F)c(F)c1` (stereo partly shown) [Compound I-178], for which the pIC50 was > 7.00.
On the same count and under the same terms, then `COCC[C@@H]1C[C@@H](NC(=O)Nc2c(C)c(C3=CCNCC3)nn2-c2ccccc2)[C@H](c2ccc(F)c(F)c2)N1C` [Compound I-258], with > 7.00; and `COCCC1C[C@@H](NC(=O)Nc2cc(-c3ccccc3)nn2C)[C@H](c2ccccc2)N1` (stereo partly shown) [Compound I-216], with 6.00 to 7.00; and `COCC[C@@H]1C[C@@H](NC(=O)Nc2c(C)c(-c3cnn(C)c3)nn2-c2ccccc2)[C@H](c2ccccc2)N1` [Compound I-242], with 6.00 to 7.00.
The same measure, in the same setting: then `COCCC1C[C@@H](NC(=O)Nc2cc(C(F)(F)F)cnc2-c2ccccc2)[C@H](c2ccccc2)C1` (relative stereo) [Compound I-201], with > 7.00; and `C=C[C@@H]1C[C@@H](NC(=O)Nc2c(C)c(-c3cnn(C)c3)nn2-c2ccccc2)[C@H](c2ccc(F)c(F)c2)N1` [Compound I-224], with 6.00 to 7.00; and `COCC[C@@H]1C[C@@H](NC(=O)Nc2c(C)c(C3=CCNCC3)nn2-c2ccccc2)[C@H](c2ccccc2)C1` [Compound I-266], with > 7.00.
On the same count and under the same terms, then `COCC(c1ccco1)N1C[C@@H](NC(=O)Nc2c(C)c(-c3cnn(C)c3)nn2-c2ccccc2)[C@H](c2ccc(F)c(F)c2)C1` (stereo partly shown) [Compound I-186], with 6.00 to 7.00.
With `Cc1c(-c2cnn(C)c2)nn(-c2ccccc2)c1NC(=O)N[C@@H]1CN(Cc2csc(Cl)n2)C[C@H]1c1ccc(F)c(F)c1` [Compound I-204], the pIC50 was > 7.00.
On the same count and under the same terms, under `COCC(O)[C@H]1C[C@@H](NC(=O)Nc2c(C)c(-c3cnn(C)c3)nn2-c2ccccc2)[C@H](c2ccc(F)c(F)c2)N1C` (stereo partly shown) [Compound I-229] stands > 7.00; under `COCC[C@@H]1C[C@@H](NC(=O)Nc2c(C)c(C3=CCN(C(=O)OC(C)(C)C)CC3)nn2-c2ccccc2)[C@H](c2ccccc2)C1` [Compound I-265], > 7.00; under `COCCC1C[C@@H](NC(=O)Nc2c(C)c(-c3cnn(C)c3)nn2-c2ccccc2)[C@H](c2ccc(F)c(F)c2)N1CC#N` (stereo partly shown) [Compound I-179], 6.00 to 7.00.
